The target in data set [1] is T1, Androgen receptor (Homo sapiens, UniProt P10275).
T1 sequence (P10275 whole entry): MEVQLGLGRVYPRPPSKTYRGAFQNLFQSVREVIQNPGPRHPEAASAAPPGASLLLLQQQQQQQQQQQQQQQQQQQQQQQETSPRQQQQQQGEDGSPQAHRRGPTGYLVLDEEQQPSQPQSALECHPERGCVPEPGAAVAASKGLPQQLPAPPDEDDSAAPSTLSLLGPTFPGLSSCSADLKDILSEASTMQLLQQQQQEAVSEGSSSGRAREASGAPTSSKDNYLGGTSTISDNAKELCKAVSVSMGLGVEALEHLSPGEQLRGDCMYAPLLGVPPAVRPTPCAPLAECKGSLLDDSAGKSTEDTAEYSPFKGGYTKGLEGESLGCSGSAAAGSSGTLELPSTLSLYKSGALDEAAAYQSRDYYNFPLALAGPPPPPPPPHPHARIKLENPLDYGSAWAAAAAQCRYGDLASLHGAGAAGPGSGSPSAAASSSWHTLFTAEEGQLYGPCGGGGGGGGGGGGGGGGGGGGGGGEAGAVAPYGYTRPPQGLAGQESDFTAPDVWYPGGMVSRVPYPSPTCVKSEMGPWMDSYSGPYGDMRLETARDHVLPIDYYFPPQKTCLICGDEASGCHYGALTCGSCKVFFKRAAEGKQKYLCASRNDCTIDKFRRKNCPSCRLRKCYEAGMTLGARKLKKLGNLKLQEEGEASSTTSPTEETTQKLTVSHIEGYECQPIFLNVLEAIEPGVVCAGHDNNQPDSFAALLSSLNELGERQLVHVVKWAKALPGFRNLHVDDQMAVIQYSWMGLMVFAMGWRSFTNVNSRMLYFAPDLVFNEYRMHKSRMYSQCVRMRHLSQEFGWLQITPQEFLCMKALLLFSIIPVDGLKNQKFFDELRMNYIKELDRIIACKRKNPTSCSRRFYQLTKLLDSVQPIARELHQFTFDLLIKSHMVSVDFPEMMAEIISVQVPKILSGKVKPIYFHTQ
Briefly: Antagonist activity at AR in human MDA-kb2 cells co-transfected with MMTV-luc assessed as decrease in DHT-induced luciferase activity by reporter gene assay. In kind it is functional, cell-based. A general note: In a reporter assay the amount or activity of a reporter protein is the signal.

The subject of data set [2] is Rattus norvegicus. Nature of the data set: Drug level in Wistar rat blood at 200 mg/kg. In kind it is ADME, organism-based. Conditions: in vivo. Further details: dose 200 mg/kg.
The test system of data set [3] is Rattus norvegicus. Nature of the data set: Drug level in Wistar rat blood at 10 g/kg. In kind it is ADME, organism-based. Conditions: in vivo, 10000 mg/kg.

With `CC(=O)Cc1ccc(O)cc1`, the results for the IC50 in data set [1] (read-out: IC50) and in data set [1] (read-out: pIC50 (converted)) were 420 µM and 417 µM, respectively. For `CC(C)(C)CC(C)(C)c1ccc(O)cc1`, the Drug uptake in data set [2] was 80 ng/mL. Compound `CC(=O)CCc1ccc(O)cc1` [RASPBERRYKETONE] showed a Drug uptake in data set [3] of 4000 ng/mL.

For the compound `COc1cc(CCC(C)=O)ccc1O` [ZINGERONE], the figures for the IC50 in data set [1] (read-out: IC50) and in data set [1] (read-out: pIC50 (converted)) were 153 µM and 151 µM, respectively.

For the origin of these results see ChEMBL document CHEMBL1156958, “Effect of essential oils, such as raspberry ketone and its derivatives, on antiandrogenic activity based on in vitro reporter gene assay” (Bioorg Med Chem Lett, 2010).
